Twelve molecules from patent US11058115B2, “Heterocycle derivatives as pesticides” (Bayer Aktiengesellschaft, priority 2017, dated 2021) can be followed below.

Molecules are shown by their SMILES.

What all share (assay type): in vivo
In assay [1] the test system is Myzus persicae. Briefly: Myzus persicae spray test. The conditions noted are these: foliar, 120 h, application rate 100 g/ha, spray on Chinese cabbage leaf discs, after 5 days, read-out: efficacy in %. The protocol:
Myzus persicae—Spray Test [table] To produce a suitable active ingredient formulation, 1 part by weight of active ingredient is dissolved with the specified parts by weight of solvent and made up to the desired concentration with water containing an emulsifier concentration of 1000 ppm. To produce further test concentrations, the formulation is diluted with emulsifier-containing water. Discs of Chinese cabbage leaves (Brassica pekinensis) infested by all stages of the green peach aphid (Myzus persicae) are sprayed with an active ingredient formulation of the desired concentration. After 5 days, the efficacy in % is determined. 100% means that all the aphids have been killed; 0% means that no aphids have been killed.

Assay [2] has as its system Myzus persicae. In words: Myzus persicae oral test. Conditions: 120 h, after 5 days, read-out: efficacy in %; for pest or weed control at 0.8 ppm: application rate 0.8 ppm; for pest or weed control at 4 ppm: application rate 4 ppm. The protocol:
Myzus persicae—Oral Test [table] To produce a suitable active ingredient formulation, 1 part by weight of active ingredient is dissolved with the stated parts by weight of solvent and made up to the desired concentration with water. 50 μl of the active ingredient formulationare transferred into microtitre plates and made up to a final volume of 200 μl with 150 μl of IPL41 insect medium (33% +15% sugar). Subsequently, the plates are sealed with parafilm, which a mixed population of green peach aphids (Myzus persicae) within a second microtitre plate is able to puncture and imbibe the solution. After 5 days, the efficacy in % is determined. 100% means that all the aphids have been killed; 0% means that no aphids have been killed.

Assay [3] deals with Phaedon cochleariae. Briefly: Phaedon cochleariae spray test. Conditions: foliar, 168 h, application rate 100 g/ha, spray on Chinese cabbage leaf discs, larvae, after 7 days, read-out: efficacy in %. How it is done: Phaedon cochleariae—Spray Test
(§1) To produce a suitable active ingredient formulation, 1 part by weight of active ingredient is dissolved with the specified parts by weight of solvent and made up to the desired concentration with water containing an emulsifier concentration of 1000 ppm. To produce further test concentrations, the formulation is diluted with emulsifier-containing water.
Discs of Chinese cabbage leaves (Brassica pekinensis) are sprayed with an active ingredient formulation of the desired concentration and, after drying, populated with larvae of the mustard beetle (Phaedon cochleariae).
After 7 days, the efficacy in % is determined. 100% means that all the beetle larvae have been killed; 0% means that no beetle larvae have been killed.

Assay [4] has as its system Musca domestica. In words: Musca domestica test. Conditions: adult houseflies, after 2 days. The protocol: Musca domestica Test Solvent: dimethyl sulfoxide To produce a suitable active ingredient formulation, 10 mg of active ingredient are mixed with 0.5 ml of dimethyl sulfoxide, and the concentrate is diluted with water to the desired concentration. Vessels containing a sponge treated with sugar solution and the active ingredient formulation of the desired concentration are populated with 10 adult houseflies (Musca domestica). After 2 days, the kill in % is determined. 100% means that all of the flies have been killed; 0% means that none of the flies have been killed.

For assay [5], the system named is Spodoptera frugiperda. Briefly: Spodoptera frugiperda spray test. Conditions: application rate 100 g/ha, spray on maize leaf discs, caterpillars, after 7 days. How it is done: Spodoptera frugiperda—Spray Test [table] To produce a suitable active ingredient formulation, 1 part by weight of active ingredient is dissolved with the specified parts by weight of solvent and made up to the desired concentration with water containing an emulsifier concentration of 1000 ppm. To produce further test concentrations, the formulation is diluted with emulsifier-containing water. Leaf discs of maize (Zea mays) are sprayed with an active ingredient formulation of the desired concentration and, after drying, populated with caterpillars of the armyworm (Spodoptera frugiperda). After 7 days, the efficacy in % is determined. 100% means that all the caterpillars have been killed; 0% means that no caterpillar has been killed.

In assay [6] the test system is Ctenocephalides felis. Briefly: Ctenocephalides felis oral test. Conditions: application rate 100 ppm in citrated cattle blood, adult cat fleas, after 2 days. How it is done:
Ctenocephalides felis—Oral Test Solvent: dimethyl sulfoxide To produce a suitable active ingredient formulation, 10 mg of active ingredient are mixed with 0.5 ml of dimethyl sulfoxide. Dilution with citrated cattle blood gives the desired concentration. About 20 unfed adult cat fleas (Ctenocephalides felis) are placed into a chamber which is closed at the top and bottom with gauze. A metal cylinder whose bottom end is closed with parafilm is placed onto the chamber. The cylinder contains the blood/active ingredient formulation, which can be imbibed by the fleas through the parafilm membrane. After 2 days, the kill in % is determined. 100% means that all of the fleas have been killed; 0% means that none of the fleas have been killed.

Assay [7] has as its system Lucilia cuprina. In words: Lucilia cuprina test. Conditions: application rate 100 ppm, L1 larvae, after 2 days. The protocol:
Lucilia cuprina Test Solvent: dimethyl sulfoxide To produce a suitable active ingredient formulation, 10 mg of active ingredient are mixed with 0.5 ml of dimethyl sulfoxide, and the concentrate is diluted with water to the desired concentration. About 20 L1 larvae of the Australian sheep blowfly (Lucilia cuprina) are transferred into a test vessel containing minced horsemeat and the active ingredient formulation of the desired concentration. After 2 days, the kill in % is determined. 100% means that all the larvae have been killed; 0% means that no larvae have been killed.

Assay [8] relates to Tetranychus urticae. Briefly: Tetranychus urticae spray test, OP-resistant. Conditions: application rate 100 g/ha, spray on bean leaf discs, all stages, after 6 days. The protocol: Tetranychus urticae—Spray Test, OP-Resistant
as §1
Discs of bean leaves (Phaseolus vulgaris) infested with all stages of the greenhouse red spider mite (Tetranychus urticae) are sprayed with an active ingredient formulation of the desired concentration.
After 6 days, the efficacy in % is determined. 100% means that all the spider mites have been killed; 0% means that no spider mites have been killed.

The subject of assay [9] is Ctenocephalides felis. In words: Ctenocephalides felis in vitro contact test with adult cat fleas. The conditions noted are these: application rate 5 μg/cm^2 (=500 g/ha), after 48 h. The protocol: Ctenocephalides felis—In Vitro Contact Tests with Adult Cat Fleas For the coating of the test tubes, 9 mg of active ingredient are first dissolved in 1 ml of acetone p.a. and then diluted to the desired concentration with acetone p.a. 250 μl of the solution are distributed homogeneously on the inner walls and the base of a 25 ml glass tube by turning and rocking on an orbital shaker (rocking rotation at 30 rpm for 2 h). With 900 ppm of active ingredient solution and internal surface area 44.7 cm^2, given homogeneous distribution, an area-based dose of 5 μg/cm^2 is achieved. After the solvent has evaporated off, the tubes are populated with 5-10 adult cat fleas (Ctenocephalides felis), sealed with a perforated plastic lid and incubated in a horizontal position at room temperature and ambient humidity. After 48 h, efficacy is determined. To this end, the tubes are stood upright and the fleas are knocked to the base of the tube. Fleas which remain motionless at the base or move in an uncoordinated manner are considered to be dead or moribund. […] 100% efficacy means that all the fleas were dead or moribund. 0% efficacy means that no fleas were harmed.

For the molecule `CCS(=O)(=O)c1c(-c2nc3cc(C(F)(F)F)nnc3n2C)nc(C2CC2)n1C` [Example I-17], the values for the pest or weed control at 100 g/ha in [1] and in [3] were 90% and 100%, respectively. The pest or weed control at 0.8 ppm in assay [2] was found to be 100%. For the same molecule, the pest or weed control at 4 ppm in [2] came out at 100%.
Consider `CCS(=O)(=O)c1c(-c2nc3cc(S(=O)(=O)C(F)(F)F)cnc3n2C)nc(C2CC2)n1C` [Example I-8], for which the “efficacy (kill in %)” value in assay [4] (application rate 20 ppm) stood at 80%; in assay [6], 100%; in assay [7] it was 100%. In assay [5], this molecule gave an efficacy in % of 100%. Further, the pest or weed control at 0.8 ppm in assay [2] is 100%. For the same molecule, in assay [2], the pest or weed control at 4 ppm turned out to be 100%. Moreover, the pest or weed control at 100 g/ha in assay [3] was 100%.
Take `CCS(=O)(=O)c1c(-c2nc3cc(C(F)(F)F)ncc3n2C)nc(C2CC2)n1C(C)C` [Example I-11]: the “efficacy (kill in %)” value amounted to 90% in assay [6] and 100% in assay [7]. Further, the results for the pest or weed control at 100 g/ha in [1] and in assay [3] were 90% and 100%, respectively. The pest or weed control at 0.8 ppm in assay [2] is 100%. The pest or weed control at 4 ppm in [2] was 100%.
On to `CCS(=O)(=O)c1c(-c2nc3cc([S+]([O-])C(F)(F)F)cnc3n2C)nc(C2CC2)n1C` (stereo not drawn) [Example I-7], for which the “efficacy (kill in %)” value in assay [4] (application rate 20 ppm) was found to be 80%; in [6], 100%; in assay [7], 100%. In assay [5], this molecule yielded an efficacy in % of 100%. In addition, the pest or weed control at 100 g/ha in assay [1] came out at 90%; in [3], 100%. Also, the pest or weed control at 0.8 ppm in assay [2] is 100%.
Consider `CCSc1c(-c2nc3cc(C(F)(F)F)cnc3n2C)nc(C2CC2)n1C` [Example I-1, 2-[2-Cyclopropyl-5-(ethylsulfanyl)-1-methyl-1H-imidazol-4-yl]-3-methyl-6-(trifluoromethyl)-3H-imidazo[4,5-b]pyridine], for which the “efficacy (kill in %)” value in [4] (application rate 20 ppm) is reported as 100%; in [4] (application rate 100 ppm) it was 100%; in assay [6], 90%; in assay [7], 100%. Moreover, the efficacy in % in assay [8] was found to be 100%. In [9], the “efficacy (fleas dead or moribund)” value was 100%. Further, the pest or weed control at 4 ppm in assay [2] turned out to be 100%. In [2] (application rate 20 ppm), the pest or weed control at 20 ppm was determined as 100%. Further, in assay [3], the pest or weed control at 100 g/ha is 100%.
For `CCS(=O)(=O)c1c(-c2nc3cc(C(F)(F)F)ncc3n2C)nc(C2CC2)n1C` [Example I-9], in assay [2], the pest or weed control at 0.8 ppm came out at 100% and the pest or weed control at 4 ppm was 100%. For the same molecule, in assay [3], the pest or weed control at 100 g/ha is 100%.
As to `CCS(=O)(=O)c1c(-c2nc3cc(OC(F)(F)F)cnc3n2C)nc(C2CC2)n1C` [Example I-6], the efficacy in % in assay [5] was 100%; in assay [8], 90%. Moreover, the pest or weed control at 100 g/ha in assay [1] and in assay [3] was 100% throughout. In addition, the pest or weed control at 0.8 ppm in assay [2] was found to be 100%. Besides, in assay [2], the pest or weed control at 4 ppm amounted to 100%.
As for `CCS(=O)(=O)c1c(-c2nc3cc(C(F)(F)F)ncc3n2C)nc(C2CCCCC2)n1C` [Example I-13, 2-[2-Cyclohexyl-5-(ethylsulfonyl)-1-methyl-1H-imidazol-4-yl]-3-methyl-6-(trifluoromethyl)-3H-imidazo[4,5-c]pyridine], the pest or weed control at 4 ppm in [2] was 100%.
Regarding `CCS(=O)(=O)c1c(-c2nc3cc(C(F)(F)F)ncc3n2C)nc([C@H]2CC[C@@H](C(F)(F)F)CC2)n1C` [Example I-15], the pest or weed control at 100 g/ha is 90% in assay [1] and 100% in assay [3]. In addition, the pest or weed control at 0.8 ppm in assay [2] turned out to be 90%. In assay [2], the pest or weed control at 4 ppm was 100%.
With `CCS(=O)(=O)c1c(-c2nc3cc(SC(F)(F)F)cnc3n2C)nc(C2CC2)n1C` [Example I-12], the efficacy in % in assay [5] came out at 83%. For the same molecule, the pest or weed control at 100 g/ha in assay [1] was found to be 100%. Further, in assay [2], the pest or weed control at 0.8 ppm amounted to 100% and the pest or weed control at 4 ppm was 100%. Besides, the pest or weed control at 100 g/ha in [3] was found to be 100%.
Molecule `CCn1c(C2CC2)nc(-c2nc3cc(C(F)(F)F)ncc3n2C)c1S(=O)(=O)CC` [Example I-10] had an efficacy in % in assay [5] of 83%. In assay [2], the pest or weed control at 0.8 ppm stood at 100% and the pest or weed control at 4 ppm was 100%. Besides, the pest or weed control at 100 g/ha in [3] amounted to 100%.
In assay [8], `CCS(=O)(=O)c1c(-c2nc3cc(C(F)(F)F)ncc3n2C)nc([C@H]2CC[C@@H](C)CC2)n1C` [Example I-16] displayed an efficacy in % of 90%. In addition, the pest or weed control at 100 g/ha in assay [1] stood at 90%. Further, in assay [2], the pest or weed control at 0.8 ppm is 90% and the pest or weed control at 4 ppm is 90%.
